Results on one substance are retold here after patent US20180052105A1, “SULFANE SULFUR-SELECTIVE FLUORESCENT PROBE” (The University of Tokyo, priority 2015, published 2018).

The nature of assay [1]: Selectivity with H2S (addition of NaHS). As to conditions: 0.1 μm of SSip-1, pH 7.4, 300 μM GSH, 50 μM NaHS, excitation 470 nm. The text has this:
(§1) The excitation wavelength was 470 nm.

Assay [2] is described as follows: Absorption and fluorescence spectra of the probe after addition of Na2S4 in buffer. As to conditions: 1 μM probe, 0.1 M sodium phosphate buffer pH 7.4, 300 μM GSH. The method, then:
Na2S4 was added to compound 8 synthesized as described above, and the absorption spectrum (UV-1650PC, Shimadzu) and fluorescence spectrum (F-4500, Hitachi) were measured.
as §1
Na2S4 was added to the synthesized compound a1, compound a2, and compound 25, which was obtained by deprotecting compound a4, and the absorption and fluorescence spectra were measured.

The subject of the next assay is cells. The assay can be described thus: Localization in cells, co-staining with Lysotracker or Mitotracker. It counts as cell-based. The method, then:
The localization in cells was studied using compound a3. […] The cells were incubated for one hour by 10 μM of compound a3 and 50 nM of Lysotracker Deep red or 200 nM of Mitotracker Deep red in DMEM (containing 0.03% Purulonic and 0.1% DMSO as a co-solvent). Ex/Em=488 nm (laser intensity 20%)/500-540 nm (PMT1000) and 650 nm/670-700 nm (PMT600)

Assay [3] is described as follows: Reversibility of SSip-1 (in vitro assay in the presence of 5 mM of GSH). The settings on record: 1 μM probe, pH 7.4, 5 mM GSH. The method, then: Reversibility of SSip-1 (In Vitro Assay in the Presence of 5 mM of GSH)
The existence of a response to sulfane sulfur was studied in the presence of 5 mM of GSH, which is the GSH concentration in cells (FIG. 4).
as §1

The next assay deals with A549 cells. The assay can be described thus: Live cell imaging (confocal microscope) with Na2S4 added. In kind it is cell-based. The method, then: The SSip-1 DA was introduced into A549 cells, and 500 μM of Na2S4 was added outside the cells under a microscope. The A549 cells were incubated for three hours by 10 μM of SSip-1 DA (containing 0.0003% Purulonic and 1% DMSO as a co-solvent). The excitation wavelength was 488 nm, and the emission wavelengths were 500-570 nm and 590-650 nm. […]

Where [4] appears, read: A549 cells incubated 3 h with 10 μM SSip-1 DA, 500 μM Na2S4 added, excitation 488 nm.

Consider SSip-1, for which the “rise in fluorescence intensity with H2S donor” value in assay [1] is “virtually no rise in fluorescence intensity”. Also, the “change in absorbance on the rhodamine side” value in assay [2] (after 50 μM Na2S4) was “decrease in absorbance on the rhodamine side”. Besides, in assay [2] (after 50 μM Na2S4, excitation 470 nm), the “rise in fluorescence intensity” value is listed as “approximately 10 fold”. Further, the “merging with Lysotracker and Mitotracker” value in the assay on cells (cells incubated 1 h with 10 μM compound a3 and 50 nM Lysotracker Deep red or 200 nM Mitotracker Deep red in DMEM) was “did not merge with Lysotracker and Mitotracker”. In addition, the localization in cells entry with cells (in comparison to the localization when only SSip-1 was loaded) was “localized in the mitochondria”. For the same substance, the “fluorescence after addition of Na2S4” value in assay [3] (50 μM Na2S4, excitation 470 nm) is given as “the fluorescence rose after addition of Na2S4”. In addition, in assay [3] (Na2S4 added again), the “reversibility (fluorescence on repeated Na2S4 addition)” value is given as “showing reversibility”. In addition, in the assay on A549 cells (setting [4]), the “intensity of the fluorescein-derived fluorescence wavelength region (500-570 nm)” value is reported as “increased” and the “intensity of the rhodamine-derived fluorescence wavelength region (590-650 nm)” value is given as “decreased slightly”. Moreover, in the assay on A549 cells (A549 live cells, after washout of 250 μM Na2S4), the “time for fluorescence to decrease after washout” value is “about 20 minutes”. For the same substance, the “time for fluorescence to rise after Na2S4 addition” value with A549 cells (A549 live cells, repeated addition of 250 μM Na2S4) was “within one minute”.
